Tested on: Plasmodium berghei
Assay: Luciferase/luciferin-expressing antifolate-resistant parasites were used to infect a culture of HepG2 cells that were pre-incubated with compounds. Infected hepatocytes emit light due to the luciferase reaction. Assay results are presented as the percent inhibition of light emission compared to control. […]
Assay type: functional
Conditions: sporozoite; for IC90: read-out: LUCIFERASE INFECTION ASSAY - IC90

Row | SMILES | IC90 | also measured
1 | Oc1c(Cl)cc(Cl)cc1/C=C/c1ccc2cccc(O)c2n1 | 7.78 µM | IC50 (HEPG2TOX_HILL_SLOPE 10.3, HEPG2TOX_R_SQUARED 0.191, PBLUC_HILL_SLOPE 3.13, PBLUC_R_SQUARED 0.48, read-out: LUCIFERASE INFECTION ASSAY - IC50): 3.86 µM
2 | CC(C)(C)c1ccccc1N1C(=O)C=CC1=O | 6.59 µM | IC50 (HEPG2TOX_HILL_SLOPE 10.3, HEPG2TOX_R_SQUARED 0.72, PBLUC_HILL_SLOPE 8.87, PBLUC_R_SQUARED 0.496, read-out: LUCIFERASE INFECTION ASSAY - IC50): 5.14 µM
3 | OCc1ccc(-c2cnc3ccc(-c4cncnc4)nn23)cc1 | 3.81 µM | IC50 (HEPG2TOX_HILL_SLOPE 10.3, HEPG2TOX_R_SQUARED 0.526, PBLUC_HILL_SLOPE 13.6, PBLUC_R_SQUARED 0.613, read-out: LUCIFERASE INFECTION ASSAY - IC50): 3.24 µM
4 | COc1ccc(Nc2nccc3[nH]c(-c4cccc(F)c4)cc23)cc1 | 3.55 µM | IC50 (HEPG2TOX_HILL_SLOPE 10.4, HEPG2TOX_R_SQUARED 0.0549, PBLUC_HILL_SLOPE 2.88, PBLUC_R_SQUARED 0.623, read-out: LUCIFERASE INFECTION ASSAY - IC50): 1.66 µM
5 | COc1cc(Nc2nc(C(F)(F)F)nc3ccccc23)cc(OC)c1OC | > 10 µM | IC50 (HEPG2TOX_HILL_SLOPE 10.4, HEPG2TOX_R_SQUARED 0.414, PBLUC_HILL_SLOPE 1.58, PBLUC_R_SQUARED 0.452, read-out: LUCIFERASE INFECTION ASSAY - IC50): 4.12 µM
6 | C=CCN(c1ccc(Cl)cc1)S(=O)(=O)c1cccc(C(=O)C(C#N)c2nc3ccccc3n2C)c1 (centres undefined) | 3.88 µM | IC50 (HEPG2TOX_HILL_SLOPE 10.3, HEPG2TOX_R_SQUARED 0.536, PBLUC_HILL_SLOPE 9.9, PBLUC_R_SQUARED 0.166, read-out: LUCIFERASE INFECTION ASSAY - IC50): 3.1 µM
7 | CN(C)c1cc(CNC(=O)c2cc3c(F)cccc3s2)ccn1 | 7.57 µM | IC50 (HEPG2TOX_HILL_SLOPE 10.4, HEPG2TOX_R_SQUARED 0.0222, PBLUC_HILL_SLOPE 5.26, PBLUC_R_SQUARED 0.456, read-out: LUCIFERASE INFECTION ASSAY - IC50): 4.99 µM
8 | Cc1noc(N)c1C(=O)OCc1cccc2cccnc12 | > 10 µM | IC50 (HEPG2TOX_HILL_SLOPE 10.3, HEPG2TOX_R_SQUARED 0.154, PBLUC_HILL_SLOPE 14, PBLUC_R_SQUARED 0.377, read-out: LUCIFERASE INFECTION ASSAY - IC50): 9.17 µM
9 | CN(C)CCNC(=O)c1cccc(-c2cnc3ccc(-c4ccc(F)cc4)nn23)c1 | > 10 µM | IC50 (HEPG2TOX_HILL_SLOPE 10.3, HEPG2TOX_R_SQUARED 0.505, PBLUC_HILL_SLOPE 2.09, PBLUC_R_SQUARED 0.253, read-out: LUCIFERASE INFECTION ASSAY - IC50): 4.88 µM
10 | COC(=O)c1c(NC(=O)c2ccco2)c2cc(NC(C)Cc3ccccc3F)cnc2n1C (centres undefined) | > 7.33 µM | IC50 (HEPG2TOX_HILL_SLOPE 10.3, HEPG2TOX_R_SQUARED 0.591, PBLUC_HILL_SLOPE 7.35, PBLUC_R_SQUARED 0.509, read-out: LUCIFERASE INFECTION ASSAY - IC50): 6.19 µM
11 | O=C(NC1CC1)c1ccc(-c2cnc3c(NCc4ccco4)nccn23)cc1 | 3.44 µM | IC50 (HEPG2TOX_HILL_SLOPE 10.4, HEPG2TOX_R_SQUARED 0.433, PBLUC_HILL_SLOPE 17.4, PBLUC_R_SQUARED 0.253, read-out: LUCIFERASE INFECTION ASSAY - IC50): 3.03 µM
12 | Cc1ccc(CCC2CCN(C(=O)CCCNC3=NS(=O)(=O)c4ccccc43)CC2)cc1 | 3.84 µM | IC50 (HEPG2TOX_HILL_SLOPE 10.3, HEPG2TOX_R_SQUARED 0.945, PBLUC_HILL_SLOPE 12.1, PBLUC_R_SQUARED 0.567, read-out: LUCIFERASE INFECTION ASSAY - IC50): 3.2 µM
13 | CN(C)c1c(F)cc(C(=O)Nc2cc(C(F)(F)F)cc(C(F)(F)F)c2)cc1F | > 8 µM | IC50 (HEPG2TOX_HILL_SLOPE 10.3, HEPG2TOX_R_SQUARED 0.772, PBLUC_HILL_SLOPE 1.36, PBLUC_R_SQUARED 0.505, read-out: LUCIFERASE INFECTION ASSAY - IC50): > 8 µM
14 | O=C(Nc1nonc1-c1cccs1)c1cccc(Cl)c1 | > 10.8 µM | IC50 (HEPG2TOX_HILL_SLOPE 10.4, HEPG2TOX_R_SQUARED 0.681, PBLUC_HILL_SLOPE 17.7, PBLUC_R_SQUARED 0.0482, read-out: LUCIFERASE INFECTION ASSAY - IC50): 9.87 µM
15 | CC(C)C(CNc1nc(-c2ccsc2)nc2ccccc12)N1CCN(C)CC1 (centres undefined) | > 10 µM | IC50 (HEPG2TOX_HILL_SLOPE 10.4, HEPG2TOX_R_SQUARED 0.591, PBLUC_HILL_SLOPE 1.6, PBLUC_R_SQUARED 0.533, read-out: LUCIFERASE INFECTION ASSAY - IC50): 2.79 µM
16 | CC(=O)c1c(C)cc(C)c(CNc2ccc(NC(=O)C3CC3)cc2C(F)(F)F)c1C | 4.59 µM | IC50 (HEPG2TOX_HILL_SLOPE 10.3, HEPG2TOX_R_SQUARED 0.233, PBLUC_HILL_SLOPE 1.48, PBLUC_R_SQUARED 0.914, read-out: LUCIFERASE INFECTION ASSAY - IC50): 1.03 µM

Row | SMILES | IC90 | also measured
17 | COc1ccc(-c2cnc3cnc(-c4ccc(OC)nc4)cn23)cc1 | 8.79 µM | IC50 (HEPG2TOX_HILL_SLOPE 10.4, HEPG2TOX_R_SQUARED 0.778, PBLUC_HILL_SLOPE 1.98, PBLUC_R_SQUARED 0.81, read-out: LUCIFERASE INFECTION ASSAY - IC50): 2.91 µM
18 | O=C(Nc1ccc(Cl)c(C(F)(F)F)c1)C(OC(=O)C12CC3CC(CC(C3)C1)C2)c1ccccc1 (centres undefined) | 9.6 µM | IC50 (HEPG2TOX_HILL_SLOPE 10.4, HEPG2TOX_R_SQUARED 0.074, PBLUC_HILL_SLOPE 15.3, PBLUC_R_SQUARED 0.511, read-out: LUCIFERASE INFECTION ASSAY - IC50): 8.31 µM
19 | CN(C)c1ccc(NC(=O)CCc2nc(-c3ccc(Cl)cc3)no2)c(C#N)c1Cl | > 7.67 µM | IC50 (HEPG2TOX_HILL_SLOPE 10.4, HEPG2TOX_R_SQUARED 0.728, PBLUC_HILL_SLOPE 0.523, PBLUC_R_SQUARED 0.342, read-out: LUCIFERASE INFECTION ASSAY - IC50): > 7.67 µM
20 | O=C(Nc1nc2ccc(Oc3ccccc3)cc2s1)c1ccc(S(=O)(=O)C(F)F)cc1 | > 10 µM | IC50 (HEPG2TOX_HILL_SLOPE 10.3, HEPG2TOX_R_SQUARED 0.512, read-out: LUCIFERASE INFECTION ASSAY - IC50): > 10 µM
21 | Clc1ccc(Nc2nccc3c2ncn3Cc2ccccc2)cc1 | > 10 µM | IC50 (HEPG2TOX_HILL_SLOPE 10.4, HEPG2TOX_R_SQUARED 0.978, PBLUC_HILL_SLOPE 0.755, PBLUC_R_SQUARED 0.638, read-out: LUCIFERASE INFECTION ASSAY - IC50): 0.827 µM
22 | C#CCOc1ccccc1/C=C1\SC(NC2CCCCC2)=NC1=O | 0.4 µM | IC50 (HEPG2TOX_HILL_SLOPE 10.3, HEPG2TOX_R_SQUARED 0.343, PBLUC_HILL_SLOPE 2.57, PBLUC_R_SQUARED 0.554, read-out: LUCIFERASE INFECTION ASSAY - IC50): 0.17 µM
23 | O=C(Nc1ncccc1O)c1csc(COc2ccc(Cl)cc2)n1 | 7.89 µM | IC50 (HEPG2TOX_HILL_SLOPE 10.3, HEPG2TOX_R_SQUARED 0.899, PBLUC_HILL_SLOPE 4.56, PBLUC_R_SQUARED 0.315, read-out: LUCIFERASE INFECTION ASSAY - IC50): 4.88 µM
24 | CC1CC1c1ccc(/C=C2\C(=O)Nc3cc(Cl)ccc32)o1 (centres undefined) | > 10 µM | IC50 (HEPG2TOX_HILL_SLOPE 10.3, HEPG2TOX_R_SQUARED 0.792, PBLUC_HILL_SLOPE 17.7, PBLUC_R_SQUARED 0.192, read-out: LUCIFERASE INFECTION ASSAY - IC50): 9.66 µM
25 | COCCCNC(=S)Nc1cccc2ccccc12 | > 12 µM | IC50 (HEPG2TOX_HILL_SLOPE 10.4, HEPG2TOX_R_SQUARED 0.777, PBLUC_HILL_SLOPE 18.1, PBLUC_R_SQUARED 0.604, read-out: LUCIFERASE INFECTION ASSAY - IC50): 11.8 µM
26 | O=[N+]([O-])c1cccc(OCC(O)CN2CCN(Cc3nc(-c4ccc(Cl)cc4)no3)CC2)c1 (centres undefined) | > 10 µM | IC50 (HEPG2TOX_HILL_SLOPE 10.3, HEPG2TOX_R_SQUARED 0.223, PBLUC_HILL_SLOPE 2.57, PBLUC_R_SQUARED 0.732, read-out: LUCIFERASE INFECTION ASSAY - IC50): 4.59 µM
27 | O=C(CCc1ccco1)Nc1ccc(-n2nccn2)cc1 | > 10 µM | IC50 (HEPG2TOX_HILL_SLOPE 10.3, HEPG2TOX_R_SQUARED 0.943, PBLUC_HILL_SLOPE 1.03, PBLUC_R_SQUARED 0.655, read-out: LUCIFERASE INFECTION ASSAY - IC50): 4.85 µM
28 | Cc1nnc(Oc2ccc(C#N)cc2Cl)c2ccccc12 | > 10 µM | IC50 (HEPG2TOX_HILL_SLOPE 10.4, HEPG2TOX_R_SQUARED 0.426, read-out: LUCIFERASE INFECTION ASSAY - IC50): > 10 µM
29 | COc1ccc(C)cc1CCNc1cc(Cl)nc(N)n1 | > 10 µM | IC50 (HEPG2TOX_HILL_SLOPE 10.5, HEPG2TOX_R_SQUARED 0.0746, read-out: LUCIFERASE INFECTION ASSAY - IC50): > 10 µM
30 | CCNC(=O)N1CCc2nc(NCc3cccc(Oc4ccccc4)c3)ncc2C1 | 3.94 µM | IC50 (HEPG2TOX_HILL_SLOPE 10.3, HEPG2TOX_R_SQUARED 0.577, PBLUC_HILL_SLOPE 136, PBLUC_R_SQUARED 0.208, read-out: LUCIFERASE INFECTION ASSAY - IC50): 3.87 µM
31 | Cc1nc(COc2ccc(C(=O)Nc3nc(-c4ccccn4)cs3)cc2)no1 | 3.46 µM | IC50 (HEPG2TOX_HILL_SLOPE 10.4, HEPG2TOX_R_SQUARED 0.524, PBLUC_HILL_SLOPE 14, PBLUC_R_SQUARED 0.305, read-out: LUCIFERASE INFECTION ASSAY - IC50): 2.96 µM
32 | COc1ccc(-c2c(C)nn3c(=O)cc(-c4ccccc4)[nH]c23)cc1 | 9.94 µM | IC50 (HEPG2TOX_HILL_SLOPE 10.3, HEPG2TOX_R_SQUARED 0.705, PBLUC_HILL_SLOPE 12.5, PBLUC_R_SQUARED 0.547, read-out: LUCIFERASE INFECTION ASSAY - IC50): 8.34 µM

Source: ChEMBL document CHEMBL4483862, “Open-source discovery of chemical leads for next-generation chemoprotective antimalarials” (2018)
